According to USRE50663E1, “Heterocycle derivatives as pesticides” (Bayer Aktiengesellschaft, priority 2017, dated 2025):

How the values were obtained:
Format in all cases: in vivo
[1] = system: adult cat fleas (Ctenocephalides felis); assay: Ctenocephalides felis oral test; details: 48 h, 100 ppm in citrated cattle blood, after 2 days, read-out: efficacy (kill)
Method in brief: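 Test compound in DMSO, diluted in citrated cattle blood to the test concentration and offered to ~20 unfed adults through a parafilm membrane. Kill % scored after 2 days (100% = all fleas dead, 0% = none).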

[2] = system: adult dog ticks (Rhipicephalus sanguineus); assay: Rhipicephalus sanguineus in vitro contact test with adult brown dog ticks; details: application rate 5 μg/cm^2, after 48 h, dead or moribund ticks
Experimental: For the coating of the test tubes, 9 mg of active compound are first dissolved in 1 ml of acetone p.a. and then diluted to the desired concentration with acetone p.a. 250 μl of the solution are distributed homogeneously on the inner walls and the base of a 25 ml glass tube by turning and rocking on an orbital shaker (rocking rotation at 30 rpm for 2 h). With 900 ppm of active compound solution and internal surface area 44.7 cm^2, given homogeneous distribution, an area-based dose of 5 μg/cm^2 is achieved.
After the solvent has evaporated off, the tubes are populated with 5-10 adult dog ticks (Rhipicephalus sanguineus), sealed with a perforated plastic lid and incubated in a horizontal position in the dark at room temperature and ambient humidity. After 48 h, efficacy is determined. To this end, the ticks are knocked to the base of the tube and incubated on a hotplate at 45-50° C. for not more than 5 min. Ticks which remain motionless on the base or move in such an uncoordinated manner that they are unable to deliberately avoid the heat by climbing upwards are considered to be dead or moribund.
An efficacy of 100% means that all the ticks were dead or moribund. 0% efficacy means that none of the ticks were harmed.

[3] = system: larvae of the mustard beetle (Phaedon cochleariae); assay: Comparative Phaedon cochleariae spray test (PHAECO); details: 168 h, 7 dat, read-out: % efficacy
Experimental: (§1) Solvent: 14 parts by weight of dimethylformamide
(§2) Emulsifier: alkylaryl polyglycol ether
(§3) To produce a suitable active compound formulation, 1 part by weight of active compound is dissolved with the specified parts by weight of solvent and made up to the desired concentration with water containing an emulsifier concentration of 1000 ppm. To produce further test concentrations, the formulation is diluted with emulsifier-containing water. If the addition of ammonium salts or/and penetrants is required, these are each added in a concentration of 1000 ppm to the formulation solution.
Cabbage leaves (Brassica oleracea) are sprayed with an active ingredient formulation of the desired concentration and populated with larvae of the mustard beetle (Phaedon cochleariae).
After the desired time, the kill in % is determined. 100% means that all the beetle larvae have been killed; 0% means that no beetle larvae have been killed.

[4] = system: caterpillars of the armyworm (Spodoptera frugiperda); assay: Comparative Spodoptera frugiperda spray test (SPODFR); details: 168 h, 7 dat, read-out: % efficacy
Experimental: as §1, §2, §3
Cotton leaves (Gossypium hirsutum) are sprayed with an active ingredient formulation of the desired concentration and populated with caterpillars of the armyworm (Spodoptera frugiperda).
After the desired time, the kill in % is determined. 100% means that all caterpillars have been killed; 0% means that none of the caterpillars have been killed.

[5] = system: green peach aphid (Myzus persicae); assay: Comparative Myzus persicae drench test (MYZUPE D); details: soil, 240 h, 10 dat, read-out: % efficacy
Experimental: (§4) Solvent: 7 parts by weight of dimethylformamide
(§5) Emulsifier: 2 parts by weight of alkylaryl polyglycol ether
(§6) To produce a suitable active ingredient formulation, 1 part by weight of active ingredient is mixed with the specified amounts of solvent and emulsifier, and the concentrate is diluted with water to the desired concentration, it being necessary to take into account the volume of soil which is drenched. It should be ensured that a concentration of 40 ppm of emulsifier in the soil is not exceeded. To produce further test concentrations, water is used for dilution.
Savoy cabbage (Brassica oleracea) in pots with soil and infested by all stages of the green peach aphid (Myzus persicae) is watered with an active ingredient formulation of the desired concentration.
After the desired period of time, the efficacy in % is determined. 100% means that all the aphids have been killed; 0% means that no aphids have been killed.

[6] = system: L2 larvae of the banded cucumber beetle (Diabrotica balteata); assay: Comparative Diabrotica balteata drench test (DIABBA D); details: soil, 192 h, 8 dat, read-out: % efficacy
Experimental: as §4, §5, §6
In each case 5 maize corns (Zea mays) are sown into pots filled with earth, and the next day the pots are watered with the active compound preparation of the desired concentration. After one day, about 25 L2 larvae of the banded cucumber beetle (Diabrotica balteata) are added.
After 8 days, the efficacy in % is determined. 100% means that all 5 plants have germinated and grown; 0% means that none of the plants has emerged.

CCS(=O)(=O)c1c(-c2nc3cc(C(F)(F)F)cnc3n2C)nc2cc(C3(C#N)CC3)ccn12 [Example I-11, 1-{3-(Ethylsulfonyl)-2-[3-methyl-6-(trifluoromethyl)-3H-imidazo[4,5-b]pyridin-2-yl]imidazo[1,2-a]pyridin-7-yl}cyclopropanecarbonitrile]
pest or weed control at 100 ppm [1]: 100%
efficacy [2]: 100%
Emax at 0.8 ppm ([3]; 0.8 ppm): 60%
Emax at 4 ppm ([3]; 4 ppm): 100%
Emax at 0.16 ppm [4]: 100%
Emax at 0.8 ppm [5]: 95%
Emax at 0.8 ppm ([6]; 0.8 ppm): 80%
Emax at 4 ppm ([6]; 4 ppm): 100%
